Experiments:
[1] = system: L1210 murine leukemia cells; test: Antitumor activity against L1210 leukemia in mice; assay type: in vivo, CDF1 mice; settings: for Survival days (mean ± SD) / T/C (%): given on 1st, 5th and 9th days after tumor inoculation; for Survival rate: number of 30 days survival mice / group
Experimental: L1210 murine leukemia cells which were subcultured in DBA/2 mouse were inoculated intraperitoneally into CDF1 mice at 10^5 cells/mouse. Each experimental group was composed of 6-10 mice (male, 6-weeks old). Each test compound was administered three times, i.e., on the 1st, 5th and 9th days after tumor inoculation. […] Each compound was dissolved or suspended in 0.05% "Tween 80" solution and administered in mice.

Slc:ICR mice = test: Acute toxicity test in mice (LD50, Miller-Tainter method); assay type: in vivo; settings: intraperitoneal, Slc:ICR mice (male), death rate on the 14th day
Experimental: Platinum complexes to be tested was administered intraperitoneally to Slc:ICR mice (male, 5 weeks old, 6 mice/group). Each complex was used in the form of a solution or suspension in a 0.05% "Tween 80" in saline. The LD50 value was calculated by the Miller-Tainter method from the death rate on the 14th day from the date of the administration.

| SMILES | Survival days (mean ± SD) ([1]; Dose 1 mg/kg) [days] | T/C (%) ([1]; Dose 1 mg/kg) | Survival rate ([1]; Dose 1 mg/kg) | Survival days (mean ± SD) ([1]; Dose 10 mg/kg) [days] | T/C (%) ([1]; Dose 10 mg/kg) | Survival rate ([1]; Dose 10 mg/kg) | Survival days (mean ± SD) ([1]; Dose 25 mg/kg) [days] | T/C (%) ([1]; Dose 25 mg/kg) | Survival rate ([1]; Dose 25 mg/kg) | Survival days (mean ± SD) ([1]; Dose 50 mg/kg) [days] | T/C (%) ([1]; Dose 50 mg/kg) | Survival rate ([1]; Dose 50 mg/kg) | Survival days (mean ± SD) ([1]; Dose 100 mg/kg) [days] | T/C (%) ([1]; Dose 100 mg/kg) | Survival rate ([1]; Dose 100 mg/kg) | Survival days (mean ± SD) ([1]; Dose 200 mg/kg) [days] | T/C (%) ([1]; Dose 200 mg/kg) | Survival rate ([1]; Dose 200 mg/kg) | LD50 values (Slc:ICR mice) [mg/kg] |
| --- | --- | --- | --- | --- | --- | --- | --- | --- | --- | --- | --- | --- | --- | --- | --- | --- | --- | --- | --- |
| CC(=O)N1c2ccccc2CC1C(=O)[O-].CC(=O)N1c2ccccc2CC1C(=O)[O-].NC1CCCCC1N.[Pt+2] (racemic) [XXIII-2, Bis(DL-1-acetylindoline-2-carboxylato)(trans-ℓ-dach)platinum(II)] | 8.3 ± 0.5 | 102 | 0/6 | 12.7 ± 8.6 | 157 | 1/6 | 14.2 ± 3.3 | 175 | 0/6 | 13.3 ± 6.1 | 164 | 0/6 | 22.2 ± 9.0 | 274 | 3/6 | 14.0 ± 2.4 | 173 | 0/6 | >200 |
| NC1CCCCC1N.O=C([O-])C1CCCO1.O=C([O-])C1CCCO1.[Pt+2] (racemic) [XXIV-2, Bis(DL-2-tetrahydrofurancarboxylato)(trans-ℓ-dach)-platinum(II)] | 11.5 ± 1.9 | 135 | 0/6 | 20.3 ± 2.7 | 239 | 0/6 | 16.7 ± 4.3 | 196 | 0/6 | 10.2 ± 1.0 | 120 | 0/6 | 6.3 ± 0.8 | 74 | 0/6 | 4.8 ± 1.3 | 57 | 0/6 | 45 |
| NC1CCCCC1N.O=C([O-])c1cc2ccccc2[nH]1.O=C([O-])c1cc2ccccc2[nH]1.[Pt+2] [XXIII-1, Bis(indole-2-carboxylato)(trans-ℓ-dach)platinum(II)] | 8.5 ± 0.8 | 102 | 0/6 | 10.5 ± 1.0 | 127 | 0/6 | 15.0 ± 5.4 | 181 | 0/6 | 18.7 ± 9.2 | 225 | 1/6 | 21.2 ± 7.9 | 255 | 2/6 | 8.2 ± 1.9 | 99 | 0/6 | 180 |

— patent EP0345356A1, “PLATINUM COMPLEX AND THERAPEUTIC AGENT FOR MALIGNANT TUMOR” (TORAY INDUSTRIES, INC., priority 1987, dated 1989)
